# Reference: patent US10231939B2, “Hydroxytyrosol and oleuropein compositions for induction of DNA damage, cell death and LSD1 inhibition” (priority 2012, dated 2019)
# Where “and” joins values, the source holds several entries; their conditions need not be identical. Equal entries are not always repeated.
# How the values were obtained:
# LSD1 = LSD1 (Homo sapiens, UniProt O60341); test: LSD1 Demethylase Profiling (HRP/Amplex Red); format: biochemical; conditions: for LSD1 inhibition (in words): 10-dose, 3-fold serial dilution starting at 100 μM, 10 μM Histone H3 (1-21) K4me2 peptide
# Protocol: (§1) Formulation 2 (4× diluted) was tested against positive control tranylcypromine for LSD1 inhibition activity. […] The production of FAD-dependent H2O2 as a result of demethylase activity of LSD1 is measured by coupling with HRP and Amplex Red and fluorescence was measured using the EnVision plate reader at Ex/Em=535/590 nm. 10 μM Histone H3 (1-21) K4me2 peptide was used as the standard substrate. Data was represented at the percentage of LSD1 enzymatic activity inhibition relative to DMSO controls and a curve fit for the control compound.
# as §1, with “Hydroxytyrosol” for “Formulation 2 (4× diluted)”
# K562 cells [1] = test: mRNA-Sequencing, K562 cells; format: cell-based, human; conditions: 24 hours
# Protocol: Cells were seeded at densities of 1×10^6/mL in culture flasks (Nalge Nunc, New York, USA) and treated with hydroxytyrosol (0, 20, 100 μM), for 24 hours at 37° C., 5% (v/v) CO2. mRNA sequencing was performed by TRIZOL extraction and library preparation using Illumina kits according to manufacturer's protocols. Next generation sequencing (NGS) was performed at a depth of approximately 20 million mapped reads per sample to determine the effect of hydroxytyrosol on genome-wide gene expression, in human erythroleukemic K562 cells and human keratinocytes (24 hr treatment, 20 and 100 μM). Reads generated by the Illumina base calling software V1.6 were aligned with Burrows Wheeler Aligner to the human transcriptome database curated by RefSeq (Hg18 build). Raw counts were normalized to adjust for slightly differing data volume across lanes giving the widely used score reads per transcript per million reads. These scores were used to determine relative fold changes and the conventionally used ±1.5 fold-change, which is discernible with qRT-PCR, was defined a significant change in expression. The online program MetaCore (GeneGo Inc. St. Joseph, MI, USA) was used for pathway analysis.
# Cells were seeded at densities of 1×10^6/mL in culture flasks (Nalge Nunc, New York, USA) and K562 cells were treated with or without 100 μM hydroxytyrosol for 24 hours at 37° C., 5% (v/v) CO2. mRNA sequencing was performed by TRIZOL extraction and library preparation using Illumina kits according to manufacturer's protocols. Next generation sequencing (NGS) was performed at a depth of approximately 20 million mapped reads per sample. Reads generated by the Illumina base calling software V1.6 were aligned with Burrows Wheeler Aligner to the human transcriptome database curated by RefSeq (Hg18 build). Raw counts were normalized to adjust for slightly differing data volume across lanes giving the widely used score reads per transcript per million reads. These scores were used to determine relative fold changes and the conventionally used ±1.5 fold-change, which is discernible with qRT-PCR, was defined a significant change in expression. The online program MetaCore (GeneGo Inc. St. Joseph, MI, USA) was used for pathway analysis. The Warburg gene-set shown in Table 10 was used to investigate changes in Warburg-related genes in human erythroleukemic compared to normal peripheral blood mononuclear cells and changes in expression of Warburg-related genes following incubation of K562 cells with hydroxytyrosol.
# K562 cells [2] = test: Apo-ONE Homogeneous Caspase 3/7 assay, K562; format: cell-based, human
# Protocol: Apoptosis was determined by cell lysis prior to measuring caspase-3/7 enzymatic activity with Apo-ONE Homogeneous Caspase-3/7 Assay kit (Promega, Wis., USA), according to the manufacturer's instructions. Following determination of growth inhibition as described above, Apo-1 substrate/buffer mix was added to each well at a ratio of 1:1 and incubated for 4 hours on a rotating platform in the dark at 22° C. The fluorescence intensity (λex=485 nm and λem=525 nm) was determined on a Victor3 multilabel plate counter (PerkinElmer, Waltham, Mass., USA). Apoptosis was reported as the change in fluorescence over 4 hours and after subtraction of the media control.
# PBMC = test: Western blotting of histone methylation, PBMC; format: cell-based, human; conditions: 100 μM, 24 hours
# K562 cells [3] = test: Total Antioxidant Capacity Assay, K562; format: cell-based, human; conditions: 50 μM hydroxytyrosol or Formulation 2 (4× diluted), 24 hours
# [4] = 100 μM HT, negative = down-regulated
# [5] = 100 μM HT, negative = down-regulated, listed as hydroxytyrosol
# [6] = 100 μM hydroxytyrosol, unsigned
smiles,measurement,setting,value
"OCCc1ccc(O)c(O)c1 [HT, 4-(2-hydroxyethyl)-1,2-benzenediol]",LSD1 inhibition (in words),LSD1; listed as Hydroxytyrosol,Hydroxytyrosol is a potent
same,LSD1 inhibition (in words),LSD1; listed as hydroxytyrosol,potent inhibitor of LSD1
same,LSD1 inhibition compared with tranylcypromine,LSD1; positive control tranylcypromine,more effective LSD1 inhibitor against tranylcypromine
same,HDAC9 expression Fold Change (DOWN),K562 cells [1]; 20 μM HT,1.82 fold and 2.00 fold
same,KDM4C expression Fold Change (DOWN),K562 cells [1]; 20 μM HT,1.61 fold
same,NCOA2 expression Fold Change (DOWN),K562 cells [1]; 20 μM HT,1.63 fold
same,PHF8 expression Fold Change (DOWN),K562 cells [1]; 20 μM HT,1.62 fold
same,PRDM1 expression Fold Change (DOWN),K562 cells [1]; 20 μM HT,1.68 fold
same,PRDM6 expression Fold Change (UP),K562 cells [1]; 20 μM HT,3.50 fold
same,PRDM12 expression Fold Change (DOWN),K562 cells [1]; 20 μM HT,1.50 fold
same,PRMT8 expression Fold Change (DOWN),K562 cells [1]; 20 μM HT,2.13 fold
same,EHMT1 expression Fold Change (DOWN),K562 cells [1]; 100 μM HT,1.63 fold
same,GTF3C4 expression Fold Change (DOWN),K562 cells [1]; 100 μM HT,1.55 fold
same,HDAC7 expression Fold Change (DOWN),K562 cells [1]; 100 μM HT,1.76 fold and 1.78 fold
same,HDAC9 expression Fold Change (UP),K562 cells [1]; 100 μM HT,2.05 fold and 1.50 fold
same,KDM4A expression Fold Change (UP),K562 cells [1]; 100 μM HT,1.71 fold
same,KDM4C expression Fold Change (DOWN),K562 cells [1]; 100 μM HT,1.66 fold
same,KDM6B expression Fold Change (UP),K562 cells [1]; 100 μM HT,1.70 fold
same,MLL3 expression Fold Change (DOWN),K562 cells [1]; 100 μM HT,1.68 fold
same,NCOA2 expression Fold Change (DOWN),K562 cells [1]; 100 μM HT,1.50 fold
same,NPM2 expression Fold Change (DOWN),K562 cells [1]; 100 μM HT,3.33 fold
same,PPARGC1A expression Fold Change (UP),K562 cells [1]; 100 μM HT,2.00 fold
same,PRDM6 expression Fold Change (DOWN),K562 cells [1]; 100 μM HT,2.00 fold
same,PRDM9 expression Fold Change (UP),K562 cells [1]; 100 μM HT,1.85 fold
same,PRDM10 expression Fold Change (DOWN),K562 cells [1]; 100 μM HT,1.92 fold
same,PRDM12 expression Fold Change (UP),K562 cells [1]; 100 μM HT,2.00 fold
same,PRDM15 expression Fold Change (DOWN),K562 cells [1]; 100 μM HT,1.78 fold
same,PRMT8 expression Fold Change (DOWN),K562 cells [1]; 100 μM HT,1.89 fold
same,RPS6KA5 expression Fold Change (UP),K562 cells [1]; 100 μM HT,1.56 fold
same,SETD1A expression Fold Change (DOWN),K562 cells [1]; 100 μM HT,1.56 fold
same,SETD7 expression Fold Change (UP),K562 cells [1]; 100 μM HT,3.41 fold
same,SMYD3 expression Fold Change (UP),K562 cells [1]; 100 μM HT,1.60 fold and 1.57 fold
same,"ACLY expression Fold Change, K562 + 100 μM HT",K562 cells [1]; [4],−1.60 fold
same,"AKT3 expression Fold Change, K562 + 100 μM HT",K562 cells [1]; [4],2.04 fold
same,"BBC3 expression Fold Change, K562 + 100 μM HT",K562 cells [1]; [4],2.66 fold
same,"C12orf5 expression Fold Change, K562 + 100 μM HT",K562 cells [1]; [4],3.57 fold
same,"CASP4 expression Fold Change, K562 + 100 μM HT",K562 cells [1]; [4],1.87 fold
same,"CASP7 expression Fold Change, K562 + 100 μM HT",K562 cells [1]; [4],2.27 fold
same,"CASP8 expression Fold Change, K562 + 100 μM HT",K562 cells [1]; [4],1.62 fold
same,"ME1 expression Fold Change, K562 + 100 μM HT",K562 cells [1]; [4],2.22 fold
same,"PFKFB2 expression Fold Change, K562 + 100 μM HT",K562 cells [1]; [4],−1.53 fold
same,"PFKFB4 expression Fold Change, K562 + 100 μM HT",K562 cells [1]; [4],−1.79 fold
same,"SLC1A4 expression Fold Change, K562 + 100 μM HT",K562 cells [1]; [4],4.28 fold
same,"SREBF1 expression Fold Change, K562 + 100 μM HT",K562 cells [1]; [4],−1.69 fold
same,"TFR2 expression Fold Change, K562 + 100 μM HT",K562 cells [1]; [4],−1.90 fold
same,"TP53 expression Fold Change, K562 + 100 μM HT",K562 cells [1]; [4],2.30 fold
same,"VEGFA expression Fold Change, K562 + 100 μM HT",K562 cells [1]; [4],2.65 fold
same,"BBC3 expression Fold Change, K562 + 100 μM HT",K562 cells [1]; [5],2.29 fold
same,"CASP7 expression Fold Change, K562 + 100 μM HT",K562 cells [1]; [5],2.01 fold
same,"TP53 expression Fold Change, K562 + 100 μM HT",K562 cells [1]; [5],1.91 fold
same,differentially expressed Warburg-related genes reversing expression towards that observed in PBMC cells,K562 cells [1]; 100 μM hydroxytyrosol,87%
same,"ACLY down-regulated, fold change",K562 cells [1]; [6],1.59 fold
same,"PFKB2 down-regulated, fold change",K562 cells [1]; [6],1.53 fold
same,"PFKFB4 down-regulated, fold change",K562 cells [1]; [6],1.79 fold
same,transferrin receptor 2 (TRF2) down-regulated,K562 cells [1]; [6],1.9 fold
same,differential expression of the Warburg-related genes regulated in K562 vs PBMC,"K562 cells [1]; 100 μM hydroxytyrosol, share of the 51 genes",30%
same,caspase 3/7 apoptotic activity,"K562 cells [2]; K562, hydroxytyrosol 24 hours",significant dose dependent increase
same,caspase 3/7 mediated apoptosis,"K562 cells [2]; K562, hydroxytyrosol or Formulation 2 (4× diluted), FIG. 25",significantly induce caspase 3/7 mediated apoptosis
same,histone H3 lysine 9 (H3K9) di-methylation,PBMC,decreased
same,total antioxidant capacity,K562 cells [3],deplete total antioxidant capacity
